The assay concerns the target Integrase (Human immunodeficiency virus 1, UniProt Q76353). Kind of assay: Inhibition of HIV-1 integrase.

The IC50 is the concentration that gives 50% inhibition. `COc1cc(C=CC(=O)CC(=O)C=Cc2ccc(O)c(OC)c2)ccc1O` returned an IC50 of 40 µM.
